System: Saccharomyces cerevisiae ABC16-Green Monster
Test: growth inhibition at single dose (up to 150 µM), below the 70% cut-off for dose-response; higher = more potent
Settings: 18 h; 30 °C; YPD
In short: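 Percent growth inhibition is the reported value. Drug-sensitive S. cerevisiae ABC16-Green Monster cultures in log phase (OD600 0.1–0.2), 200 µl per well in 96-well plates, received each library compound once at 150 µM in biological duplicates, with untreated cultures run alongside. Growth was followed by OD600 at 0 h and after 18 h at 30 °C. Dose-response was not done for compounds below 70% in both replicates.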

| SMILES | growth inhibition at single dose |
| --- | --- |
| CNc1nnc(Sc2cnn(-c3ccccc3)c(=O)c2Cl)s1 | < 70% |
| COc1ccc(-c2cnc3ccc(NCc4ccc(S(N)(=O)=O)cc4)nn23)cn1 | < 70% |
| CN(C)c1ccc(-c2nc3cc(N)ccc3[nH]2)cc1 | < 70% |
| COc1cc(C(=O)c2c(N)c(C#N)cn3c2nc2ccccc23)cc(OC)c1OC | < 70% |
| CCOC(=O)c1cnc2c(CC)cccc2c1O | < 70% |
| CCn1nnnc1Sc1nc(C)nc2sc3c(c12)CCC3 | < 70% |
| COc1ccc(F)cc1CN(Cc1ccc(C(=O)NC2CC2)cc1)Cc1ccco1 | < 70% |
| CN1CCN(c2ccc(Nc3c4ccccc4nc4ccccc34)cc2)CC1 | < 70% |
| O=C(NC(=O)c1csnn1)Nc1cc(C(F)(F)F)cc(C(F)(F)F)c1 | < 70% |
| COc1ccc(C=C2SC(=N)N(c3ccccc3OC)C2=O)cc1 | < 70% |
| CN1CCCC1CCO[C@](C)(c1ccccc1)c1ccc(Cl)cc1 (stereo partly drawn) | < 70% |
| CCOC(=O)c1c(C)[nH]c(C(=O)CSc2nccn2C)c1C | < 70% |
| CCCOc1ccc(C(F)(F)F)cc1NC(=O)c1nc2nccc(C)n2n1 | < 70% |
| Cc1cc(N(C)C)nc(Nc2ccc(NC(=O)Nc3ccccc3)cc2)n1 | < 70% |
| COc1cc(C2=NCCN2)ccc1-c1cn(-c2cccc(C3=NCCN3)c2)nn1 | < 70% |
| O=C(NC(c1ccccc1)c1ccc2cccnc2c1O)c1ccccc1 (stereo not drawn) | < 70% |
| CCn1nc(C(=O)NCc2ccc(OC)cc2)c2c1CCN(C(=O)C1Cc3ccccc3O1)C2 (stereo not drawn) | < 70% |
| Cc1[nH]c2ccccc2c1/C=N/n1c(-c2ccc(Cl)cc2Cl)cs/c1=N\CC1CCCO1 (stereo not drawn) | < 70% |
| O=C(Nc1ncccc1O)c1ccc(S(=O)(=O)NCc2ccco2)cc1 | < 70% |
| CC1(C)Cc2c(c(N3CCOCC3)nc3snc(Br)c23)CO1 | < 70% |
| CNc1snc(C)c1C(=O)N(C)Cc1ccccc1OC(F)(F)F | < 70% |
| O=C1O[C@@H](CO)CN1c1cc(F)c(C2=CCN(Cc3ccccc3)CC2)c(F)c1 | < 70% |
| C=c1ccccc1=C1NN=C(Nc2ccc(F)c(F)c2F)O1 | < 70% |
| CN(C)CCNc1nc(-c2ccco2)c2c(c1C#N)CCCC2 | < 70% |

| SMILES | growth inhibition at single dose |
| --- | --- |
| Cc1nc(Sc2ncnc3sc4c(c23)CCC4)sc1CC(N)=O | < 70% |
| COc1ccccc1CN1CCN2C(=O)[C@@H](Cc3ccc(O)cc3)NC(=O)[C@H]2C1 | < 70% |
| CC(=O)c1c(C)[nH]c(C(=O)Nc2nc3ccccc3[nH]2)c1C | < 70% |
| CCOC(=O)c1c(NC(=O)c2ccccc2)sc2c(O)c(CN(CC)CC)ccc12 | < 70% |
| COC(=O)c1c(NC(=O)c2c(F)c(F)c(F)c(F)c2F)sc2c1CCCCC2 | < 70% |
| CN(C)Cc1ccc(CNc2ncnc3scc(-c4ccccc4)c23)cc1 | < 70% |
| CCOC(=O)c1c(C)n(-c2ccccc2)c2ccc(OC(=O)c3cc(OC)c(OC)c(OC)c3)cc12 | < 70% |
| C[n+]1c2ccccc2nc2ccc(NCCO)cc21 | < 70% |
| CCN(CC)S(=O)(=O)c1ccc(OC(C)C)c(NC(=O)C2=CN3CCS(=O)(=O)N=C3C=C2)c1 | < 70% |
| Cc1nn2c(=O)c3c([nH]c2c1-c1ccc(Cl)cc1)CCCC3 | < 70% |
| CNc1snc(C)c1C(=O)NC(C)c1ccc(C(C)C)cc1 (stereo not drawn) | < 70% |
| c1ccc(-c2ccc(-c3nc4ccccc4[nH]3)cc2)cc1 | < 70% |
| CC(=O)NCc1ccc(C(=O)Nc2ccccc2O)cc1 | < 70% |
| COc1cccc(Nc2nc(NCCO)c3ccccc3n2)c1 | < 70% |
| COc1ccc(N(CCc2cccc(C)n2)C(=O)C2CCCCC2)cc1 | < 70% |
| O=C(NC1CCCCC1)N1CCN(Cc2ccc3c(c2)OCO3)CC1 | < 70% |
| O=c1c2ccccc2cnn1-c1nc2ccccc2[nH]1 | < 70% |
| O=C(Cn1ncc(Cl)c(Cl)c1=O)N1N=C(c2ccco2)CC1c1cccs1 (stereo not drawn) | < 70% |
| O/N=C1/c2ccccc2-c2nnc(-c3cccc(OC(F)(F)F)c3)cc21 | < 70% |
| CCCn1nc(C(=O)Nc2ccccc2N2CCc3ccccc3C2)ccc1=O | < 70% |
| Cc1nc(-c2ccccn2)nc(NCCc2ccc(S(C)(=O)=O)cc2)c1Cl | < 70% |
| COCC(C)Nc1ncnc2scc(-c3ccc(OC)cc3)c12 (stereo not drawn) | < 70% |
| CNc1nc(SCCS(=O)(=O)c2ccccc2)nc2ccccc12 | < 70% |
| COc1ccc2nc(C)cc(OCC(=O)NCc3ccccc3)c2c1 | < 70% |

| SMILES | growth inhibition at single dose |
| --- | --- |
| O=C(Nc1ccc(F)c(-c2nc3cc(-c4ccccc4)cnc3[nH]2)c1)N1CCCC1 | < 70% |
| Cc1ccc(N2C3c4ccccc4N(S(=O)(=O)c4ccc(C)cc4)C2c2ccccc2N3S(=O)(=O)c2ccc(C)cc2)cc1 | < 70% |
| COc1ccc(NC(=O)c2ccoc2)cc1S(=O)(=O)Nc1ccc(Br)cc1 | < 70% |
| CC1CCN(Cc2c(O)ccc3cc(-c4nc5ccccc5s4)c(=O)oc23)CC1 | < 70% |
| CC(C)c1ccc(C2C3CCc4ccccc4C3=NN2C)cc1 (stereo not drawn) | < 70% |
| CCOC(=O)c1c(C)[nH]c(C(=O)Nc2ncccc2C)c1C | < 70% |
| COc1ccccc1CNC(=O)C1c2ccccc2C(=O)N(CC(C)C)C1c1cccs1 (stereo not drawn) | < 70% |
| Cc1cc(C)nc(SCC(=O)N2CCN(C(=O)c3ccco3)CC2)n1 | < 70% |
| CN(C(=O)CSc1nnc(COc2ccccc2F)n1N)C1CCCCC1 | < 70% |
| CNCCCNc1ccnc2cc(Cl)ccc12 | < 70% |
| Cc1cc(OCC(=O)NCc2ccccc2)c2cc(Br)ccc2n1 | < 70% |
| Cc1cc(C(=O)COc2ccc(C(N)=O)cc2)c(C)n1-c1ccc2c(c1)OCO2 | < 70% |
| O=C(Nc1ccc2c(c1)OC1(CCCCC1)O2)c1ccc[nH]c1=O | < 70% |
| COc1ccc(C(=O)Nc2ccc3nc(N4CCCCC4)cc(C)c3c2)cc1OC | < 70% |
| Cc1ccc(S(=O)(=O)/N=C2\C=C3N(CCO)CCOC3(O)c3ccccc32)c(C)c1 (stereo not drawn) | < 70% |
| CC(=O)N1CCc2cc3nc(C)cc(C)c3cc21 | < 70% |
| CC(C)(C)c1ccc(C(=O)Nc2c3c(nn2-c2cccc(Cl)c2)CSC3)cc1 | < 70% |
| Cc1nccnc1-c1ccnn1C(=O)Nc1cc(Cl)cc(Cl)c1 | < 70% |
| CCCc1ccc(-c2nc(-c3cccs3)no2)cc1 | < 70% |
| Cc1nn(-c2ccccc2)c(C)c1-c1nc(-c2ccccc2)no1 | < 70% |
| CCCc1ccc(-c2nc(-c3ccccc3)no2)cc1 | < 70% |
| Cc1nn(Cc2ccccc2)c(Cl)c1C(=O)NC1CCCCCC1 | < 70% |
| Cc1cc(=O)nc(N/N=C/c2c(C)nn(-c3ccccc3Cl)c2Cl)[nH]1 | < 70% |
| CC(C)CN(C(=O)c1ccc(N2CCCC2)c([N+](=O)[O-])c1)c1nc2ccccc2s1 | < 70% |

| SMILES | growth inhibition at single dose |
| --- | --- |
| CCC(=O)Nc1nnc(Cc2ccc(OC)c(OC)c2)s1 | < 70% |
| CCOC(=O)c1cn(CC)c2cc(N(C)CCc3ccc(OC)c(OC)c3)c(F)cc2c1=O | < 70% |
| CCOc1c(Br)cc(C2C(C(=O)OC)=CN(C)C=C2C(=O)OC)cc1OC | < 70% |
| N#C/C(C(=O)c1ccc([N+](=O)[O-])s1)=C1\Nc2ccccc2S1 | < 70% |
| Cc1ccc2ncnc(NCCc3ccccc3)c2c1 | < 70% |
| c1ccc(Oc2ccc(-c3cncc(-c4ccc5[nH]ccc5c4)n3)cc2)cc1 | < 70% |
| Cc1c(C)n(CCCO)c2ncn3nc(-c4ccccc4)nc3c12 | < 70% |
| CC(=O)N1CCN(c2ccc(Oc3ccc(Cl)cc3O)cc2)CC1 | < 70% |
| c1ccc(C2=Nc3ccccc3N=C(c3ccccc3)c3ccccc32)cc1 | < 70% |
| CCOC(=O)c1noc(N)c1-c1ccccc1 | < 70% |
| Cc1cc(C(=O)NCC#Cc2cccc(C(F)(F)F)c2)on1 | < 70% |
| c1ccc(Oc2ccc(-c3cc(N4CCOCC4)[nH]n3)cc2)cc1 | < 70% |
| CC(C)c1ccc2cc(C(=O)Nc3ccc4c(c3)NC(=O)CO4)[nH]c2c1 | < 70% |
| CC(C)(C)c1cc(C(=O)N2CCN(c3nccnc3C#N)CC2)n(Cc2ccccc2)n1 | < 70% |
| COc1ccc(O)c(C(=O)c2cc(Cl)c3nc4ccccc4c(=O)n3c2)c1 | < 70% |
| Cc1ccn2cc(C(=O)Nc3nnc(CC(C)C)s3)nc2c1 | < 70% |
| COc1cccc(NC(=O)Cn2c(C)c(C#N)c3ccccc32)c1 | < 70% |
| CN(C)S(=O)(=O)c1cccc(C(=O)Nc2cnc3ccccc3c2)c1 | < 70% |
| Cc1ccc2[nH]c(C3CCCNC3)c(-c3ccncc3)c2c1 (stereo not drawn) | < 70% |
| CC(C)Cn1c(N)c(C(=O)CSc2nnc(COc3ccccc3Cl)o2)c(=O)n(C)c1=O | < 70% |
| Cc1ccc(CNC(=O)c2ccc(/C=C3\SC(=O)NC3=O)cc2)cc1 | < 70% |
